Source: US8357694B2, “Substituted 5,6-dihydro-6-phenylbenzo[F]isoquinolin-2-amine compounds” (ArQule, Inc., priority 2008, dated 2013)
Values joined by “and” are separate entries in the source; they are usually repeats but may differ in a detail not shown here. Identical values can stand only once. Like-named read-outs stand apart in the source and are kept apart here.

Experiments:
KATO III [1] = experiment: in vitro PD assay, KATO III; format: cell-based; conditions: Homo sapiens
Ba/F3 parental cells = experiment: MTS assay, Ba/F3 parental; conditions: Mus musculus, BaF3, read-out: MTS IC50
Protocol: (§3) Cells were maintained at 37° C., 5% CO2 in DMEM media supplemented with 1% fetal bovine serum, penicillin/streptomycin and fungizone (Invitrogen). Cells were seeded into 96-well tissue culture plates at 3000 per well and cultured at 37° C. for 18 hours. Test compounds were dissolved and diluted to 300× in DMSO then diluted 1:40 in DMEM.

SNU-16 [2] = experiment: in vitro PD assay, SNU-16; format: cell-based; conditions: Homo sapiens
FGFR2 kinase = target: T1, FGFR2 kinase (Homo sapiens, UniProt P21802, N549H); experiment: fluorescent ELISA FGFR2 kinase assay (biochemical)
T1 construct: purchased Millipore 14-742
T1 sequence (P21802 456-770 N549H limits assumed): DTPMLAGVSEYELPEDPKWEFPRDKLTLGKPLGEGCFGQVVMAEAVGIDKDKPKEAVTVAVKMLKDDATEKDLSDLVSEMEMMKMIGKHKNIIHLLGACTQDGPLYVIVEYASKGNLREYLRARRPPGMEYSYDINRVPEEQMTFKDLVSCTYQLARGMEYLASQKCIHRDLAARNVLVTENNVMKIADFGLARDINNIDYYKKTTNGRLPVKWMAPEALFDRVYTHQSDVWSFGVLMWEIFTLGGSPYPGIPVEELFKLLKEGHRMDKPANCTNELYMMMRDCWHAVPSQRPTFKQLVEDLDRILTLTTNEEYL
Protocol: The enzymatic assays described herein are conducted according to the following procedures from commercially available reagents. In one, non limiting, example, a fluorescent ELISA assay is used to identify and characterize inhibitors of FGFR2 kinase as described herein. This heterogeneous assay utilizes a biotinylated peptide with a tyrosine motif as a substrate and an anti-phospho-tyrosine antibody to measure phosphorylation of the substrate. […] The reaction is incubated for 60 minutes. As the reaction proceeds, FGFR2 phosphorylates tyrosines in the peptide. […] Peptides are captured for 30 minutes at room temperature, the phosphorylation of peptides continues during this phase. The reaction is stopped by washing the streptavidin-coated plate 6 times with TBST. […] Unbound anti-phospho-tyrosine antibody is removed by washing the streptavidin-coated plate 6 times with TBST. […] Unbound secondary antibody is removed by washing the streptavidin-coated plate 6 times with TBST.

KATO III [3] = experiment: MTS assay, KATO III; format: cell-based; conditions: Homo sapiens, read-out: MTS IC50
Protocol: as §3

SNU-16 [4] = experiment: MTS assay, SNU-16; format: cell-based; conditions: Homo sapiens, SNU-16, SNU-16; read-out: MTS IC50
Protocol: as §3

A549 = experiment: combination cytotoxicity, A549; format: cell-based; conditions: in combination with (3R,4R)-3-(5,6-dihydro-4H-pyrrolo[3,2,1-ij]quinolin-1-yl)-4-(1H-indol-3-yl)pyrrolidine-2,5-dione
Text: (§1) The combination data of (R)-6-(2-fluorophenyl)-N-(3-(2-(4-(2-methoxyethyl)piperazin-1-yl)ethyl)phenyl)-5,6-dihydrobenzo[h]quinazolin-2-amine with a kinase inhibitor (3R,4R)-3-(5,6-dihydro-4H-pyrrolo[3,2,1-ij]quinolin-1-yl)-4-(1H-indol-3-yl)pyrrolidine-2,5-dione is shown in Table 28. The identity and tissue origin of cancer cell lines are indicated.

CAKI-2 = experiment: combination cytotoxicity, CAKI-2; format: cell-based; conditions: in combination with (3R,4R)-3-(5,6-dihydro-4H-pyrrolo[3,2,1-ij]quinolin-1-yl)-4-(1H-indol-3-yl)pyrrolidine-2,5-dione
Text: as §1

[5] = system: SNU-16, Ba/F3-FGFR2 or Ba/F3 INSR tumors; experiment: tumor growth in xenograft models; format: in vivo; conditions: subcutaneous tumors in nude mice; orally dosed once daily
Protocol: (A) Tumor from cancer cells SNU-16, Ba/F3-FGFR2 or Ba/F3 INSR were established subcutaneously in nude mice. Tumor growth in nude mice orally dosed with the indicated dose of example 159, or vehicle control was determined. All regimens were administered once daily for the indicated number of days. Tumor sizes were evaluated periodically during treatment and are represented as the mean of tumor volume in mm3±SEM (n=10) (FIGS. 4A-C). Phosphorylation of FGFR2 (D) or ERK (E) was assessed for cells from tumors harvested at the indicated time points after a single oral administration of 250 mg/kg of Example 159 by immunohistochemistry.

FGFR2 in SNU-16 = experiment: FGFR2 phosphorylation by immunoblotting, SNU-16; format: cell-based; conditions: 0.3 μM to 10 μM for 2 h, then KGF stimulation for 15 min
Protocol: (§2) Cells whose growth rely on FGFR2 as determined in Example 585 such as KATO III and SNU-16, were treated with increasing concentration of example 159, from 0.3 μM to 10 μM for 2 h, followed by stimulation with […] of KGF for 15 min.

FGFR2 in KATO III = experiment: FGFR2 phosphorylation by immunoblotting, KATO III; format: cell-based; conditions: 0.3 μM to 10 μM for 2 h, then KGF stimulation for 15 min
Protocol: as §2

CALU-6 = experiment: combination cytotoxicity, CALU-6; format: cell-based; conditions: in combination with (3R,4R)-3-(5,6-dihydro-4H-pyrrolo[3,2,1-ij]quinolin-1-yl)-4-(1H-indol-3-yl)pyrrolidine-2,5-dione
Text: as §1

RT4 = experiment: combination cytotoxicity, RT4; format: cell-based; conditions: in combination with (3R,4R)-3-(5,6-dihydro-4H-pyrrolo[3,2,1-ij]quinolin-1-yl)-4-(1H-indol-3-yl)pyrrolidine-2,5-dione
Text: as §1

DU4475 = experiment: combination cytotoxicity, DU4475; format: cell-based; conditions: in combination with (3R,4R)-3-(5,6-dihydro-4H-pyrrolo[3,2,1-ij]quinolin-1-yl)-4-(1H-indol-3-yl)pyrrolidine-2,5-dione
Text: as §1

RT112 = experiment: combination cytotoxicity, RT112; format: cell-based; conditions: in combination with (3R,4R)-3-(5,6-dihydro-4H-pyrrolo[3,2,1-ij]quinolin-1-yl)-4-(1H-indol-3-yl)pyrrolidine-2,5-dione
Text: as §1

THP-1 = experiment: combination cytotoxicity, THP-1; format: cell-based; conditions: in combination with (3R,4R)-3-(5,6-dihydro-4H-pyrrolo[3,2,1-ij]quinolin-1-yl)-4-(1H-indol-3-yl)pyrrolidine-2,5-dione
Text: as §1

SNU-16 [6] = experiment: combination cytotoxicity, SNU-16; format: cell-based; conditions: in combination with (3R,4R)-3-(5,6-dihydro-4H-pyrrolo[3,2,1-ij]quinolin-1-yl)-4-(1H-indol-3-yl)pyrrolidine-2,5-dione
Text: as §1

LS174T = experiment: combination cytotoxicity, LS174T; format: cell-based; conditions: in combination with (3R,4R)-3-(5,6-dihydro-4H-pyrrolo[3,2,1-ij]quinolin-1-yl)-4-(1H-indol-3-yl)pyrrolidine-2,5-dione
Text: as §1

Kato III cells = experiment: cell cycle profile by FACS analyses; format: cell-based
Protocol: Kato III cells were treated with example 159, or FGFR2 siRNA. Cell cycle profiles were assessed by FACS analyses (FIG. 3).

IC50 (KATO III [1])	IC50 (SNU-16 [2])	IC50 (FGFR2 kinase; FGFR2 (N549H), read-out: Biochemical data (IC50-μM) FGFR2 (N549H))	IC50 (FGFR2 kinase; read-out: Biochemical IC50)	IC50 (SNU-16 [4])	SMILES	IC50 (Ba/F3 parental cells)	IC50 (KATO III [3])	combination cytotoxicity (A549)	combination cytotoxicity (CAKI-2)	tumor growth in xenograft models [5]	amount of phosphorylated FGFR2 (FGFR2 in SNU-16)	amount of phosphorylated FGFR2 (FGFR2 in KATO III)	combination cytotoxicity (CALU-6)	combination cytotoxicity (RT4)	combination cytotoxicity (DU4475)	combination cytotoxicity (RT112)	combination cytotoxicity (THP-1)	combination cytotoxicity (SNU-16 [6])	combination cytotoxicity (LS174T)	cell cycle profile (Kato III cells)
100 nM	200 nM	0.00714 µM and 0.0523 µM	0.0004 µM	1000 nM	COCCN1CCN(CCc2cccc(Nc3ncc4c(n3)-c3ccccc3[C@H](c3ccccc3F)C4)c2)CC1 [Example 159, (R)-6-(2-fluorophenyl)-N-(3-(2-(4-(2-methoxyethyl)piperazin-1-yl)ethyl)phenyl)-5,6-dihydrobenzo[h]quinazolin-2-amine]	70000 nM	100 nM													
					COCCN1CCN(CCc2cccc(Nc3ncc4c(n3)-c3ccccc3[C@H](c3ccccc3F)C4)c2)CC1 [(R)-6-(2-fluorophenyl)-N-(3-(2-(4-(2-methoxyethyl)piperazin-] [(R)-6-(2-fluorophenyl)-N-(3-(2-(4-(2-methoxyethyl)piperazin-1-yl)ethyl)phenyl)-5,6-dihydrobenzo[h]quinazolin-2-amine]			additive cytotoxicity	additive cytotoxicity	inhibition of tumor growth	inhibition of autophosphorylation of FGFR2	inhibition of autophosphorylation of FGFR2	additive cytotoxicity	additive cytotoxicity	additive cytotoxicity	additive cytotoxicity	additive cytotoxicity	additive cytotoxicity	additive cytotoxicity	arrest of KATO III cells in G1 phase
